Reference: article PMC7069944, “Amino acid levels determine metabolism and CYP450 function of hepatocytes and hepatoma cell lines” (Nature Communications, 2020)
“And” between values parts separate entries of the source, which are not always exact repeats. Identical values can stand only once.

Legend:
HepG2 = assay: Repeated-exposure DILI training compounds, resazurin conversion, HepG2
In short: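 PSC-derived cells differentiated in 384-well format, plus HepG2 seeded at 40,000 cells/well, received drugs after 8 h of attachment; untreated wells served as negative controls. Viability was measured by resazurin conversion and related to therapeutic Cmax values.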

HC3X = assay: Repeated-exposure DILI training compounds, resazurin conversion, HC3X; settings: for Resazurin conversion, repeated exposure (Supplementary Figure 7D): HC3X AAGLY D40
In short: (§1)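 PSC-derived hepatocyte-like cells were differentiated in 384-well plates, and drugs were added after 8 h of attachment. Viability was measured by resazurin conversion and related to therapeutic Cmax values, with untreated wells as negative control.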

HLC = assay: Repeated-exposure DILI training compounds, resazurin conversion, HLC
In short: as §1

HC6X = assay: Repeated-exposure DILI training compounds, resazurin conversion, HC6X
In short: as §1

## Cc1ccc(C(=O)c2cc(O)c(O)c([N+](=O)[O-])c2)cc1 [tolcapone]
HepG2; HepG2 AAGLY D30, 10 uM
  Resazurin conversion, repeated exposure (Supplementary Figure 7D): 106.6 and 108.2 and 105.6 and 120.1 and 84.5 and 128.6
HepG2; HepG2 AAGLY D30, 30 uM
  Resazurin conversion, repeated exposure (Supplementary Figure 7D): 144.6 and 128.4 and 104.2 and 136.2 and 93.4 and 133.6
HepG2; HepG2 AAGLY D30, 50 uM
  Resazurin conversion, repeated exposure (Supplementary Figure 7D): 126.9 and 134.9 and 97.9 and 148.8 and 105 and 143.9
HepG2; HepG2 AAGLY D30, 300 uM
  Resazurin conversion, repeated exposure (Supplementary Figure 7D): 44.5 and 61.6 and 62 and 66.8 and 60.8 and 73.6
HepG2; HepG2 AAGLY D30, 500 uM
  Resazurin conversion, repeated exposure (Supplementary Figure 7D): 48.7 and 42.4 and 39.6 and 41.5 and 43.3 and 45.5
HepG2; HepG2 AAGLY D30, 1000 uM
  Resazurin conversion, repeated exposure (Supplementary Figure 7D): 27.5 and 27.3 and 26.8 and 27.1 and 27.8
HepG2; HepG2 AAGLY D30, 2000 uM
  Resazurin conversion, repeated exposure (Supplementary Figure 7D): 22.7 and 22.5 and 22.2 and 22.1 and 22.4
HepG2; HepG2 AAGLY D30, 4000 uM
  Resazurin conversion, repeated exposure (Supplementary Figure 7D): 15.8 and 14.5 and 14.4 and 13.5 and 14.3
HepG2; HepG2 CTL D7, 10 uM
  Resazurin conversion, repeated exposure (Supplementary Figure 7D): 87 and 84.9 and 85.9 and 110.7 and 87.4 and 87.2
HepG2; HepG2 CTL D7, 30 uM
  Resazurin conversion, repeated exposure (Supplementary Figure 7D): 113.4 and 88.9 and 98.2 and 86.8 and 100.5 and 86.2
HepG2; HepG2 CTL D7, 300 uM
  Resazurin conversion, repeated exposure (Supplementary Figure 7D): 8.3 and 8 and 7.5 and 8.8 and 8.1
HepG2; HepG2 CTL D7, 500 uM
  Resazurin conversion, repeated exposure (Supplementary Figure 7D): 7.3 and 6.8 and 6.5 and 6.6 and 6.7
HepG2; HepG2 CTL D7, 1000 uM
  Resazurin conversion, repeated exposure (Supplementary Figure 7D): 6.4 and 5.9 and 5.8 and 5.6
HepG2; HepG2 CTL D7, 2000 uM
  Resazurin conversion, repeated exposure (Supplementary Figure 7D): 4.8 and 4.4 and 4
HepG2; HepG2 CTL D7, 4000 uM
  Resazurin conversion, repeated exposure (Supplementary Figure 7D): 2.3 and 2.5 and 2.2 and 2.1 and 2 and 2.6
HC3X; 10 uM
  Resazurin conversion, repeated exposure (Supplementary Figure 7D): 139.4 and 142.8 and 150.5 and 156.1 and 95.1 and 108.2
HC3X; 30 uM
  Resazurin conversion, repeated exposure (Supplementary Figure 7D): 50.8 and 58.9 and 61.5 and 64.6 and 88.9 and 76.4
HC3X; 300 uM
  Resazurin conversion, repeated exposure (Supplementary Figure 7D): 8.4 and 7.7 and 8 and 9.1 and 9.2
HC3X; 500 uM
  Resazurin conversion, repeated exposure (Supplementary Figure 7D): 11.6 and 15.4 and 8.7 and 13.6 and 11.8 and 12.2
HC3X; 1000 uM
  Resazurin conversion, repeated exposure (Supplementary Figure 7D): 6.7 and 6.6 and 6.4 and 6.5 and 7.5 and 9.6
HC3X; 2000 uM
  Resazurin conversion, repeated exposure (Supplementary Figure 7D): 4.2 and 4.1 and 4.6
HC3X; 4000 uM
  Resazurin conversion, repeated exposure (Supplementary Figure 7D): 3.1 and 3.3 and 3 and 3.2 and 3.4
HC3X; human
  IC50/Cmax: 0.83
HLC; HLC AAGLY D40, 10 uM
  Resazurin conversion, repeated exposure (Supplementary Figure 7D): 89.6 and 98.4 and 93.9 and 112.4 and 126.3 and 99.4
HLC; HLC AAGLY D40, 100 uM
  Resazurin conversion, repeated exposure (Supplementary Figure 7D): 143.7 and 88 and 126.1 and 79.6 and 153.9 and 130.7
HLC; HLC AAGLY D40, 500 uM
  Resazurin conversion, repeated exposure (Supplementary Figure 7D): 86.2 and 108.3 and 80.7 and 126.4 and 91.4 and 111.1
HLC; HLC AAGLY D40, 1000 uM
  Resazurin conversion, repeated exposure (Supplementary Figure 7D): 80.1 and 96.8 and 72.2 and 70.6 and 94.2 and 112.4
HLC; HLC LDM D40, 10 uM
  Resazurin conversion, repeated exposure (Supplementary Figure 7D): 110.5 and 107.3 and 79 and 94.2 and 118.4 and 85.4
HLC; HLC LDM D40, 50 uM
  Resazurin conversion, repeated exposure (Supplementary Figure 7D): 117.3 and 84.9 and 88.5 and 107.2 and 94.9 and 106
HLC; HLC LDM D40, 100 uM
  Resazurin conversion, repeated exposure (Supplementary Figure 7D): 136.2 and 145.5 and 129 and 115.8 and 107.1 and 144.8
HLC; HLC LDM D40, 500 uM
  Resazurin conversion, repeated exposure (Supplementary Figure 7D): 60.4 and 57.9 and 62.5 and 68.7 and 54 and 73.8
HLC; HLC LDM D40, 4000 uM
  Resazurin conversion, repeated exposure (Supplementary Figure 7D): 25.6 and 16.8 and 16.1 and 16 and 13.5 and 19.7
HC6X; HC6X AAGLY D40, 10 uM
  Resazurin conversion, repeated exposure (Supplementary Figure 7D): 103.7 and 134.6 and 82 and 87 and 83.1 and 109.6
HC6X; HC6X AAGLY D40, 30 uM
  Resazurin conversion, repeated exposure (Supplementary Figure 7D): 98.2 and 113.2 and 82.9 and 88.4 and 81.1 and 97.8
HC6X; HC6X AAGLY D40, 100 uM
  Resazurin conversion, repeated exposure (Supplementary Figure 7D): 47.9 and 57 and 49.7 and 51.8 and 54.9 and 72.8
HC6X; HC6X AAGLY D40, 300 uM
  Resazurin conversion, repeated exposure (Supplementary Figure 7D): 39.5 and 40.5 and 38.8 and 59.9 and 40.3 and 47.8
HC6X; HC6X AAGLY D40, 500 uM
  Resazurin conversion, repeated exposure (Supplementary Figure 7D): 34.3 and 39.2 and 30.7 and 33.5 and 40.3 and 34.2
HC6X; HC6X AAGLY D40, 1000 uM
  Resazurin conversion, repeated exposure (Supplementary Figure 7D): 31.1 and 26.7 and 26.3 and 27.6 and 26.5
HC6X; HC6X AAGLY D40, 2000 uM
  Resazurin conversion, repeated exposure (Supplementary Figure 7D): 22.1 and 28.3 and 22.3 and 22.5 and 23 and 22.4
HC6X; HC6X AAGLY D40, 4000 uM
  Resazurin conversion, repeated exposure (Supplementary Figure 7D): 17.8 and 17.3 and 16.6 and 16.3 and 16.4 and 16.8
HC6X; HC6X AAGLY D40 Remove dox, 30 uM
  Resazurin conversion, repeated exposure (Supplementary Figure 7D): 108.6 and 121.2 and 103 and 112.9 and 119.8 and 93.5
HC6X; HC6X AAGLY D40 Remove dox, 50 uM
  Resazurin conversion, repeated exposure (Supplementary Figure 7D): 77 and 153.8 and 144.7 and 105.2 and 81.9 and 88.4
HC6X; HC6X AAGLY D40 Remove dox, 1000 uM
  Resazurin conversion, repeated exposure (Supplementary Figure 7D): 78.8 and 118 and 78.9 and 118.9 and 81.8 and 105.5
